Four molecules from patent US4868321A, “Isothiocyanate intermediates” (FMC Corporation, priority 1988, dated 1989) can be followed below.

What all share (format): in vivo
The test system of experiment [1] is Wheat. As to the kind of experiment: Postemergence Herbicidal Activity, Wheat. The note with it: Triticum aestivum, post-emergence; for plant injury at 2000 g/ha: 2.0 kg/ha. The essentials:
(§1)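 The reported numbers are percent control, obtained after treatment at rates quantified as kilograms per hectare.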

Experiment [2] deals with Field Corn. The experiment is described as follows: Postemergence Herbicidal Activity, Field Corn. As to conditions: Zea mays, post-emergence; for plant injury at 2000 g/ha: 2.0 kg/ha. The essentials:
as §1

The subject of experiment [3] is Barnyardgrass. The experiment is described as follows: Preemergence Herbicidal Activity, Barnyardgrass. As to conditions: Echinochloa crus-galli, pre-emergence; for pest or weed control at 2000 g/ha: 2.0 kg/ha. The essentials:
(§2)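 Application rate is expressed per hectare in kilograms. Values are percent control.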

Experiment [4] concerns Rice. The experiment is described as follows: Postemergence Herbicidal Activity, Rice. As to conditions: Oryza sativa, post-emergence; for plant injury at 2000 g/ha: 2.0 kg/ha. The essentials: as §1
Experiment [5] relates to Rice. As to the kind of experiment: Preemergence Herbicidal Activity, Rice. The note with it: Oryza sativa, pre-emergence; for plant injury at 2000 g/ha: 2.0 kg/ha. The essentials:
as §1

Experiment [6] concerns Velvetleaf. The experiment is described as follows: Postemergence Herbicidal Activity, Velvetleaf. As to conditions: Abutilon theophrasti, post-emergence; for pest or weed control at 2000 g/ha: 2.0 kg/ha. The essentials:
(§3)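 Percent control scored after pre- or postemergence treatment at rates in kg/ha, using test compounds generally formulated in 50/50 acetone/water.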

Experiment [7] concerns Wheat. The experiment is described as follows: Preemergence Herbicidal Activity, Wheat. The note with it: Triticum aestivum, pre-emergence; for plant injury at 2000 g/ha: 2.0 kg/ha. The essentials: as §1
Experiment [8] has as its system Field Corn. As to the kind of experiment: Preemergence Herbicidal Activity, Field Corn. As to conditions: Zea mays, pre-emergence; for plant injury at 2000 g/ha: 2.0 kg/ha. The essentials:
as §1

In experiment [9] the test system is Green Foxtail. As to the kind of experiment: Preemergence Herbicidal Activity, Green Foxtail. As to conditions: Setaria viridis, pre-emergence; for pest or weed control at 2000 g/ha: 2.0 kg/ha. The essentials: as §2
Experiment [10] concerns Green Foxtail. As to the kind of experiment: Postemergence Herbicidal Activity, Green Foxtail. The note with it: Setaria viridis, post-emergence; for pest or weed control at 2000 g/ha: 2.0 kg/ha. The essentials: as §2
Experiment [11] has as its system Barnyardgrass. The experiment is described as follows: Postemergence Herbicidal Activity, Barnyardgrass. As to conditions: Echinochloa crus-galli, post-emergence; for pest or weed control at 2000 g/ha: 2.0 kg/ha. The essentials:
as §2

In experiment [12] the test system is Morningglory. The experiment is described as follows: Postemergence Herbicidal Activity, Morningglory. As to conditions: Ipomoea, post-emergence; for pest or weed control at 2000 g/ha: 2.0 kg/ha. The essentials:
as §3

In experiment [13] the test system is Velvetleaf. The experiment is described as follows: Preemergence Herbicidal Activity, Velvetleaf. The note with it: Abutilon theophrasti, pre-emergence; for pest or weed control at 2000 g/ha: 2.0 kg/ha. The essentials:
as §3

Experiment [14] relates to Cotton. The experiment is described as follows: Postemergence Herbicidal Activity, Cotton. As to conditions: Gossypium hirsutum, post-emergence; for plant injury at 2000 g/ha: 2.0 kg/ha. The essentials: as §3
The subject of experiment [15] is Cotton. The experiment is described as follows: Preemergence Herbicidal Activity, Cotton. As to conditions: Gossypium hirsutum, pre-emergence; for plant injury at 2000 g/ha: 2.0 kg/ha. The essentials: as §3
Experiment [16] concerns Morningglory. As to the kind of experiment: Preemergence Herbicidal Activity, Morningglory. The note with it: Ipomoea, pre-emergence; for pest or weed control at 2000 g/ha: 2.0 kg/ha. The essentials: as §3
Experiment [17] concerns Soybean. As to the kind of experiment: Preemergence Herbicidal Activity, Soybean. As to conditions: Glycine max, pre-emergence; for plant injury at 2000 g/ha: 2.0 kg/ha. The essentials:
as §1

Experiment [18] concerns Field Bindweed. The experiment is described as follows: Postemergence Herbicidal Activity, Field Bindweed. As to conditions: post-emergence; for pest or weed control at 2000 g/ha: 2.0 kg/ha. The essentials: as §3
Experiment [19] has as its system Johnsongrass. As to the kind of experiment: Preemergence Herbicidal Activity, Johnsongrass. The note with it: Sorghum halepense, pre-emergence; for pest or weed control at 2000 g/ha: 2.0 kg/ha. The essentials: as §2
The test system of experiment [20] is Johnsongrass. The experiment is described as follows: Postemergence Herbicidal Activity, Johnsongrass. As to conditions: Sorghum halepense, post-emergence; for pest or weed control at 2000 g/ha: 2.0 kg/ha. The essentials:
as §2

Experiment [21] concerns Field Bindweed. As to the kind of experiment: Preemergence Herbicidal Activity, Field Bindweed. As to conditions: pre-emergence; for pest or weed control at 2000 g/ha: 2.0 kg/ha. The essentials: as §3
In experiment [22] the test system is Soybean. The experiment is described as follows: Postemergence Herbicidal Activity, Soybean. As to conditions: Glycine max, post-emergence; for plant injury at 2000 g/ha: 2.0 kg/ha. The essentials:
as §1

Counter-ions that a name gives are not always drawn.

The term plant injury denotes the degree to which the test organism was suppressed or injured, in per cent. Low values mean a weak effect, high ones a strong effect. A word on the pest or weed control: it is the degree to which the test organism was suppressed or injured, in per cent. A low value points to a weak effect. In the case of `O=c1n(CCCF)nnn1-c1cc(NS(=O)(=O)C(F)(F)F)c(Cl)cc1F` [Compound 32, 1-[4-Chloro-2-fluoro-5-(N--trifluoromethylsulfonylamino)phenyl]-1,4-dihydro-4-(3-fluoropropyl)-5H--tetrazol-5-one potassium salt], the plant injury at 2000 g/ha came out at 40% in the experiment with Wheat [1]; 70% in the experiment with Field Corn [2]; 40% with Rice [4]; 95% in the experiment with Rice [5]; 10% in the experiment with Wheat [7]; 50% in the experiment on Field Corn [8]. Further, the plant injury at 2000 g/ha came out at 100% with Cotton [14], 100% in the experiment on Cotton [15], 40% in the experiment with Soybean [17] and 100% in the experiment on Soybean [22]. In addition, the pest or weed control at 2000 g/ha in the experiment on Barnyardgrass [3] was 95%; in the experiment with Velvetleaf [6] it was 100%; with Green Foxtail [9], 60%; with Green Foxtail [10], 40%; with Barnyardgrass [11], 70%; in the experiment with Morningglory [12], 100%. In addition, the pest or weed control at 2000 g/ha is 100% with Velvetleaf [13]; 100% in the experiment on Morningglory [16]; 100% in the experiment with Field Bindweed [18]; 80% in the experiment on Johnsongrass [19]; 70% in the experiment on Johnsongrass [20]; 100% in the experiment with Field Bindweed [21].

As to `CCS(=O)(=O)N(CC#N)c1cc(-n2nnn(CCCF)c2=O)c(F)cc1Cl` [Compound 16], the plant injury at 500 g/ha with Wheat [1] (0.5 kg/ha) was 60%; in the experiment with Field Corn [2] (0.5 kg/ha), 50%; in the experiment on Rice [4] (0.5 kg/ha), 50%; in the experiment on Rice [5] (0.5 kg/ha), 70%; in the experiment on Wheat [7] (0.5 kg/ha), 60%; in the experiment on Field Corn [8] (0.5 kg/ha), 95%. Also, the plant injury at 500 g/ha worked out at 100% in the experiment with Cotton [14] (0.5 kg/ha), 100% with Cotton [15] (0.5 kg/ha), 80% with Soybean [17] (0.5 kg/ha) and 70% with Soybean [22] (0.5 kg/ha). For the same molecule, the pest or weed control at 500 g/ha stood at 90% with Barnyardgrass [3] (0.5 kg/ha); 100% in the experiment with Velvetleaf [6] (0.5 kg/ha); 100% in the experiment with Green Foxtail [9] (0.5 kg/ha); 70% with Green Foxtail [10] (0.5 kg/ha); 50% in the experiment with Barnyardgrass [11] (0.5 kg/ha); 100% with Morningglory [12] (0.5 kg/ha). In addition, the pest or weed control at 500 g/ha in the experiment with Velvetleaf [13] (0.5 kg/ha) was 100%; with Morningglory [16] (0.5 kg/ha) it was 100%; in the experiment on Field Bindweed [18] (0.5 kg/ha) it was 100%; in the experiment with Johnsongrass [19] (0.5 kg/ha) it was 90%; with Johnsongrass [20] (0.5 kg/ha) it was 60%; in the experiment on Field Bindweed [21] (0.5 kg/ha), 100%.

For `Cn1nnn(-c2cc(N(S(C)(=O)=O)S(C)(=O)=O)c(Cl)cc2F)c1=O` [Compound 40], the plant injury at 4000 g/ha was 20% in the experiment on Wheat [1] (4.0 kg/ha); 20% with Field Corn [2] (4.0 kg/ha); 10% in the experiment with Rice [4] (4.0 kg/ha); 20% with Rice [5] (4.0 kg/ha); 30% with Wheat [7] (4.0 kg/ha); 30% with Field Corn [8] (4.0 kg/ha). In addition, the plant injury at 4000 g/ha is 40% in the experiment on Cotton [14] (4.0 kg/ha), 50% with Cotton [15] (4.0 kg/ha), 20% in the experiment with Soybean [17] (4.0 kg/ha) and 20% with Soybean [22] (4.0 kg/ha). For the same molecule, the pest or weed control at 4000 g/ha stood at 70% with Barnyardgrass [3] (4.0 kg/ha); 70% in the experiment on Velvetleaf [6] (4.0 kg/ha); 40% with Green Foxtail [9] (4.0 kg/ha); 30% in the experiment with Green Foxtail [10] (4.0 kg/ha); 60% in the experiment on Barnyardgrass [11] (4.0 kg/ha); 60% with Morningglory [12] (4.0 kg/ha). Further, the pest or weed control at 4000 g/ha in the experiment on Velvetleaf [13] (4.0 kg/ha) worked out at 100%; with Morningglory [16] (4.0 kg/ha), 70%; with Field Bindweed [18] (4.0 kg/ha), 40%; in the experiment on Johnsongrass [19] (4.0 kg/ha), 40%; in the experiment on Johnsongrass [20] (4.0 kg/ha), 30%; with Field Bindweed [21] (4.0 kg/ha), 40%.

Take `CCCn1nnn(-c2cc(NS(=O)(=O)CC)c(Cl)cc2F)c1=O` [Compound 51, 1-[4-Chloro-2-fluoro-5-(N--ethylsulfonylamino)phenyl]-4,5-dihydro-4-propyl-5H--tetrazol-5-one]: the plant injury at 2000 g/ha in the experiment on Wheat [1] stood at 70%; with Field Corn [2], 60%; in the experiment on Rice [4], 60%; in the experiment on Rice [5], 30%; in the experiment with Wheat [7], 20%; with Field Corn [8], 70%. The plant injury at 2000 g/ha in the experiment on Cotton [14] worked out at 100%; with Cotton [15], 100%; with Soybean [17], 20%; in the experiment on Soybean [22], 70%. The pest or weed control at 2000 g/ha with Barnyardgrass [3] came to 70%; in the experiment on Velvetleaf [6], 100%; in the experiment with Green Foxtail [9], 95%; in the experiment on Green Foxtail [10], 80%; in the experiment on Barnyardgrass [11], 80%; in the experiment with Morningglory [12] it was 100%. Also, the pest or weed control at 2000 g/ha with Velvetleaf [13] came to 100%; with Morningglory [16] it was 100%; with Field Bindweed [18] it was 100%; in the experiment on Johnsongrass [19] it was 10%; in the experiment on Johnsongrass [20], 70%; in the experiment with Field Bindweed [21], 100%.
